Data on 37 compounds can be found in patent US4798905A, “Sulphenylated carbamic acid esters, a process for their preparation and their use” (Bayer Aktiengesellschaft, priority 1984, dated 1989).

The test system of one assay is Pyrenophora teres. The assay can be described thus: Pyrenophora teres test (barley)/protective. To be noted: protective, 0.025 % by weight in the spray liquor, 7 days after inoculation.
For the next assay, the system named is Plasmopara viticola. The assay can be described thus: Plasmopara test (vines)/protective. The following applies: protective, 7 days after inoculation.
Another assay deals with Pyricularia oryzae. Type of assay: in vivo. To be noted: rice, protective; active compound concentration 0.025 %; 4 days after inoculation.
The subject of the next assay is Drechslera graminea. In words: Drechslera graminea test (barley)/seed treatment (syn. Helminthosporium gramineum). Type of assay: in vivo. The following applies: seed treatment, about 3 weeks after sowing, undressed 29.7.
For the next assay, the system named is Aspergillus niger. The assay can be described thus: Minimum inhibitory concentration (MIC) in agar, Aspergillus niger. The following applies: 336 h, 28° C., two weeks. Type of assay: cell-based. Here is the method:
(§1) Active compounds according to the invention are added in concentrations of 0.1 mg/l to 5,000 mg/l to an agar prepared from bierwort and peptone. After being kept at 28° C. and 60 to 70% relative atmospheric humidity for two weeks, the MIC is determined. The MIC is the lowest concentration of active compound at which no growth at all by the species of microbe used takes place, and is shown in the following Table I.

The subject of the next assay is Penicillium glaucum. In words: Minimum inhibitory concentration (MIC) in agar, Penicillium glaucum. Type of assay: cell-based. The following applies: 336 h, 28° C., two weeks. Here is the method:
as §1

The subject of the next assay is Chaetomium globosum. The assay can be described thus: Minimum inhibitory concentration (MIC) in agar, Chaetomium globosum. Type of assay: cell-based. To be noted: 336 h, 28° C., two weeks. The protocol: as §1
The next assay concerns Lentinus tigrinus. The assay can be described thus: Minimum inhibitory concentration (MIC) in agar, Lentinus tigrinus. The format is cell-based. The following applies: 336 h, 28° C., two weeks. Here is the method: as §1
For a further assay, the system named is Alternaria tenuis. In words: Minimum inhibitory concentration (MIC) in agar, Alternaria tenuis. The format is cell-based. The following applies: Alternaria alternata, 336 h, 28° C., two weeks. The protocol:
as §1

The test system of the next assay is Aureobasidium pullulans. The assay can be described thus: Minimum inhibitory concentration (MIC) in agar, Aureobasidium pullulans. Type of assay: cell-based. To be noted: 336 h, 28° C., two weeks. The protocol: as §1
The next assay deals with Sclerophoma pityophila. The assay can be described thus: Minimum inhibitory concentration (MIC) in agar, Sclerophoma pityophila. Type of assay: cell-based. The following applies: Sydowia polyspora, 336 h, 28° C., two weeks. The protocol:
as §1

For the next assay, the system named is Coniophora puteana. In words: Minimum inhibitory concentration (MIC) in agar, Coniophora puteana. The format is cell-based. To be noted: 336 h, 28° C., two weeks. The protocol:
as §1

For another assay, the system named is Polyporus versicolor. The assay can be described thus: Minimum inhibitory concentration (MIC) in agar, Polyporus versicolor. The format is cell-based. The following applies: Trametes versicolor, 336 h, 28° C., two weeks. Here is the method:
as §1

≈ marks a conversion by molar mass, not a printed value.

Procedure for Plasmopara viticola: Solvent: 4.7 parts by weight of acetone
Emulsifier: 0.3 part by weight of alkylaryl polyglycol ether
After the spray coating has dried on, the plants are inoculated with an aqueous spore suspension of Plasmopara viticola and then remain in a humidity chamber at 20° to 22° C. and 100% relative atmospheric humidity for 1 day. The plants are then placed in a greenhouse at 22° C. and about 80% atmospheric humidity for 5 days. The plants are then moistened and placed in a humidity chamber for 1 day.
(§2) Evaluation is carried out 7 days after the inoculation.
Procedure for Pyrenophora teres: Solvent: 100 parts by weight of dimethylformamide
Emulsifier: 0.25 part by weight of alkylaryl polyglycol ether
After the spray coating has dried on, the plants are sprayed with a conidia suspension of Pyrenophora teres. The plants then remain in an incubation cabin at 20° C. and 100% relative atmospheric humidity for 48 hours.
The plants are placed in a greenhouse at a temperature of about 20° C. and a relative atmospheric humidity of about 80%.
as §2

As to `COc1ccc(N(SC(F)(Cl)Cl)C(=O)OC(C)C)cc1OC`, the “Disease infestation in % of the untreated control” value (“Disease infestation in %” for short) with Pyrenophora teres was 25.0%.

On to `O=C(OCc1ccccc1)N(SC(F)(Cl)Cl)c1ccccc1` [drawing 39], for which the values for the Infestation in % in the assay with Plasmopara viticola (active compound concentration 1 ppm) and with Plasmopara viticola (active compound concentration 2 ppm) were 47% and 24%, respectively.

`COCCOC(=O)N(SC(F)(Cl)Cl)c1ccccc1`: the “Disease infestation in %” value in the assay on Pyricularia oryzae was determined as 30%. Regarding `COC(=O)N(SC(F)(Cl)Cl)c1ccc(OC)c(OC)c1`, the “Disease infestation in %” value with Pyrenophora teres is on record as 0.0%. The same measure, in the same setting: with `O=C(OCC(Cl)(Cl)Cl)N(SC(F)(Cl)Cl)c1ccc(Cl)cc1` the figure was 33.7%. With `COC(=O)N(SC(F)(Cl)Cl)c1ccccc1`, the “Diseased plants in % of the total plants emerged” value (shortened to “Diseased plants in %”) with Drechslera graminea (500 mg/kg of seed) was determined as 3.1%. As for `COC(=O)N(SC(F)(Cl)Cl)c1ccc(Cl)cc1` [drawing 26], in the assay with Pyrenophora teres, the “Disease infestation in %” value is recorded as 37.7%. Regarding `O=C(OCc1ccc(Cl)c(Cl)c1)N(SC(F)(Cl)Cl)c1ccccc1`, the “Disease infestation in %” value in the assay with Pyricularia oryzae turned out to be 10%. Regarding `COC(=O)N(SC(F)(Cl)Cl)c1cc(Cl)cc(Cl)c1` [drawing 15], in the assay with Pyrenophora teres, the “Disease infestation in %” value was 30.3%. Same read-out and setting: the same measure for `COC(=O)N(SC(F)(Cl)Cl)c1ccc(Cl)cc1Cl` [drawing 12]: 37.7%; for `COC(=O)N(SC(F)(Cl)Cl)c1ccc(Cl)c(Cl)c1` [drawing 25]: 14.5%; for `COC(=O)N(SC(F)(Cl)Cl)c1ccc(Cl)cc1C` [drawing 13]: 31.3%.

A word on the MIC: it is the least concentration at which growth counts as inhibited. For the compound `COC(=O)N(SC(F)(Cl)Cl)c1ccc(C)c(Cl)c1` [Example 31], the minimal inhibitory concentration (MIC) against Aspergillus niger, in the assay with Penicillium glaucum and against Chaetomium globosum was less than 20 µg/mL in each case.

As for `COC(=O)N(SC(F)(Cl)Cl)c1cccc(C(F)(F)F)c1` [drawing 30], the “Diseased plants in %” value with Drechslera graminea (500 mg/kg of seed) is 0.0%. Same read-out and setting: the same measure for `COC(=O)N(SC(F)(Cl)Cl)c1ccc(Cl)cc1C` [drawing 29]: 0.0%. With `COC(=O)N(SC(F)(Cl)Cl)c1cccc(Cl)c1` [drawing 16], the “Disease infestation in %” value in the assay with Pyrenophora teres was found to be 20.3%. As to `COC(=O)N(SC(F)(Cl)Cl)c1ccc(Cl)cc1C` [Example 29], the minimum inhibitory concentration (MIC) in the assay with Aspergillus niger, against Penicillium glaucum and against Chaetomium globosum was less than 20 µg/mL each time.

For `COC(=O)N(SC(F)(Cl)Cl)c1ccc(C)c(Cl)c1` [drawing 28], the “Diseased plants in %” value in the assay with Drechslera graminea (500 mg/kg of seed) worked out at 3.2%.

For the compound `COC(=O)N(SC(F)(Cl)Cl)c1cc(Cl)c(OC)c(Cl)c1`, the “Disease infestation in %” value with Pyrenophora teres worked out at 25.0%.

For `COC(=O)N(SC(F)(Cl)Cl)c1ccc(C(F)(F)F)c(Cl)c1` [drawing 32], the “Diseased plants in %” value in the assay on Drechslera graminea (500 mg/kg of seed) was determined as 1.0%. For `CCOc1ccc(N(SC(F)(Cl)Cl)C(=O)OC)cc1`, the “Disease infestation in %” value with Pyrenophora teres is listed as 29.4%.

On to `COC(=O)N(SC(F)(Cl)Cl)c1ccc(Cl)c(Cl)c1` [Example 18], for which the minimum inhibitory concentration (MIC) in the assay with Aspergillus niger was 35 µg/mL (≈ 99.1 µM); in the assay with Penicillium glaucum, less than 20 µg/mL; against Chaetomium globosum, less than 20 µg/mL. Take `COC(=O)N(SC(F)(Cl)Cl)c1cccc(C(F)(F)F)c1` [drawing 14]: in the assay with Pyrenophora teres, the “Disease infestation in %” value is 30.3%. Same read-out and setting: with `CN(C)S(=O)(=O)N(SC(F)(Cl)Cl)c1ccccc1` [drawing 10, reference compound] the figure was 72.5%.

As for `COC(=O)N(SC(F)(Cl)Cl)c1ccc(Cl)cc1` [Example 1], the MIC in the assay with Aspergillus niger, in the assay with Penicillium glaucum and against Chaetomium globosum was less than 20 µg/mL throughout. As for `CN(C)S(=O)(=O)N(SC(F)(Cl)Cl)c1ccccc1` [drawing 27, reference compound], the “Diseased plants in %” value in the assay with Drechslera graminea (600 mg/kg of seed) turned out to be 23.9%. As for `COC(=O)N(SC(F)(Cl)Cl)c1ccc(C(F)(F)F)c(Cl)c1` [drawing 17], the “Disease infestation in %” value in the assay with Pyrenophora teres worked out at 20.3%.

In the case of `O=C(OCc1ccccc1)N(SC(F)(Cl)Cl)c1ccccc1` [drawing 36], the “Disease infestation in %” value with Pyricularia oryzae is 0%. With `COC(=O)N(SC(F)(Cl)Cl)c1cccc(Cl)c1Cl` [Example 14], the MIC with Aspergillus niger, with Penicillium glaucum and with Chaetomium globosum was less than 20 µg/mL each time. Regarding `COC(=O)N(SC(F)(Cl)Cl)c1ccc(C)c(Cl)c1` [drawing 11], the “Disease infestation in %” value with Pyrenophora teres was determined as 39.4%.

With `COC(=O)N(SC(F)(Cl)Cl)c1cc(Cl)cc(Cl)c1` [drawing 31], the “Diseased plants in %” value with Drechslera graminea (500 mg/kg of seed) worked out at 0.0%.

As for `COC(=O)N(SC(F)(Cl)Cl)c1cccc(Cl)c1` [Example 9], the MIC with Aspergillus niger, against Penicillium glaucum and against Chaetomium globosum was less than 20 µg/mL in each case. On to `COC(=O)N(SC(Cl)(Cl)Cl)c1ccccc1` [drawing 18], for which the “Disease infestation in %” value in the assay with Pyrenophora teres came out at 20.3%.

As to `COC(=O)N(SC(F)(Cl)Cl)c1ccc(Cl)cc1Cl` [Example 16], the MIC in the assay on Aspergillus niger, in the assay on Penicillium glaucum and in the assay with Chaetomium globosum was less than 20 µg/mL throughout. Consider `COC(=O)N(SC(Cl)(Cl)Cl)c1ccccc1` [Example 41], for which the minimal inhibitory concentration (MIC) came to 5 µg/mL (≈ 16.6 µM) in the assay on Aspergillus niger; 20 µg/mL (≈ 66.5 µM) against Penicillium glaucum; 0.5 µg/mL (≈ 1.66 µM) in the assay on Lentinus tigrinus; 0.5 µg/mL (≈ 1.66 µM) against Alternaria tenuis; 1.5 µg/mL (≈ 4.99 µM) in the assay on Aureobasidium pullulans; 2 µg/mL (≈ 6.65 µM) in the assay on Chaetomium globosum. The MIC against Sclerophoma pityophila stood at 1 µg/mL (≈ 3.33 µM); with Coniophora puteana, 0.1 µg/mL (≈ 0.333 µM); against Polyporus versicolor, 1.5 µg/mL (≈ 4.99 µM).

With `CCOC(=O)N(SC(F)(Cl)Cl)c1cc(Cl)cc(Cl)c1` [Example 23], the MIC was 35 µg/mL (≈ 95.4 µM) in the assay with Aspergillus niger; 7.5 µg/mL (≈ 20.4 µM) with Penicillium glaucum; 1 µg/mL (≈ 2.72 µM) in the assay with Lentinus tigrinus; 5 µg/mL (≈ 13.6 µM) in the assay with Alternaria tenuis; 3.5 µg/mL (≈ 9.54 µM) in the assay on Aureobasidium pullulans; 10 µg/mL (≈ 27.2 µM) against Chaetomium globosum. Moreover, the MIC against Sclerophoma pityophila was found to be 1.5 µg/mL (≈ 4.09 µM); in the assay with Coniophora puteana, 1 µg/mL (≈ 2.72 µM); against Polyporus versicolor, 2 µg/mL (≈ 5.45 µM). Turning to `COc1c(Cl)cc(N(SC(F)(Cl)Cl)C(=O)OC(C)C)cc1Cl`, the “Disease infestation in %” value with Pyrenophora teres is 25.0%.
